Assay results as given in PubChem BioAssay (NCI).
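Grown in 96-well plates, cells were treated for 48 hours with each compound at five concentrations. Insufficient inhibition: endpoint recorded as highest concentration tested. TGI marks complete inhibition of growth.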

Columns and labels:
Assay in all cases: DTP human tumour cell line panel, 48 h
[1] = system: HL-60(TB) leukemia
[2] = system: CCRF-CEM leukemia
[3] = system: RPMI-8226 leukemia
[4] = system: BT-549 breast
[5] = system: DLD-1 colon
[6] = system: DU-145 prostate
[7] = system: HOP-92 NSCLC
[8] = system: TK-10 renal
[9] = system: DMS 273 small cell lung
[10] = system: DMS 114 small cell lung
[11] = system: NCI-H460 lung

Molecule `NC(N)=NCCCC(NCc1c2ccccc2nc2ccccc12)C(=O)O` (stereo unspecified) has a TGI [1] of 44.1 µM, a TGI [2] of 75.1 µM and a TGI [3] of over 53.3 µM. For the same molecule, the TGI [4] was over 100 µM, the TGI [5] was 50.5 µM and the TGI [6] was over 100 µM. For the same molecule, the TGI [7] was over 83.5 µM, the TGI [8] was over 100 µM and the TGI [9] was over 100 µM. The TGI [10] was 79.4 µM and the TGI [11] was over 100 µM.
`Cn1c(=O)c2nc3sc4c(n3c2n(C)c1=O)C(=O)c1ccccc1C4=O` gave a TGI [1] of 45.3 µM, a TGI [2] of over 50.3 µM and a TGI [3] of over 83.4 µM. The TGI [4] was over 61.5 µM, the TGI [5] was over 100 µM and the TGI [6] was over 100 µM. It also gave a TGI [7] of over 42.7 µM, a TGI [8] of over 100 µM and a TGI [9] of over 100 µM. It also gave a TGI [10] of over 100 µM and a TGI [11] of over 95.4 µM.
`O=C1NC(=O)C2C(=O)NC(=O)C1C2Cc1ccco1` (stereo unspecified) showed a TGI [1] of over 100 µM, a TGI [2] of over 100 µM and a TGI [3] of over 100 µM. The TGI [5] was over 100 µM, the TGI [7] was over 100 µM and the TGI [8] was over 100 µM. For the same molecule, the TGI [9] was over 100 µM, the TGI [10] was over 100 µM and the TGI [11] was over 100 µM.
In the case of `N#CC1CC(c2ccccc2)Nc2cc(Cl)ccc2N1` (stereo unspecified), the TGI [1] is reported as over 100 µM, the TGI [2] is reported as over 100 µM and the TGI [3] is reported as over 100 µM. The TGI [5] was over 100 µM, the TGI [7] was over 100 µM and the TGI [8] was over 100 µM. For the same molecule, the TGI [9] was over 100 µM, the TGI [10] was 97.3 µM and the TGI [11] was over 100 µM.
`COc1cc(/C=C2\NC(=O)C(Cc3cc(OC)c(OC)c(C)c3OC)N(C(C)=O)C2=O)c(OC)c(C)c1OC` (stereo unspecified) gave a TGI [1] of 69.9 µM, a TGI [2] of over 100 µM and a TGI [3] of over 100 µM. For the same molecule, the TGI [5] was over 100 µM, the TGI [7] was over 100 µM and the TGI [8] was over 100 µM. For the same molecule, the TGI [9] was over 100 µM, the TGI [10] was over 100 µM and the TGI [11] was over 100 µM.
In the case of `CC(=O)OCC(=O)[C@@]1(O)CC[C@H]2[C@@H]3C[C@H](C)C4=CC(=O)C=C[C@]4(C)[C@@]3(F)[C@@H](O)C[C@@]21C`, the TGI [1] is reported as over 100 µM, the TGI [2] is reported as over 100 µM and the TGI [3] is reported as over 100 µM. It also gave a TGI [5] of over 100 µM, a TGI [7] of over 100 µM and a TGI [8] of over 100 µM. The TGI [9] was over 100 µM, the TGI [10] was over 100 µM and the TGI [11] was over 100 µM.
Work on `Cc1ccccc1C(CCCO)C(=O)O` (stereo unspecified) yielded a TGI [1] of over 100 µM, a TGI [2] of over 100 µM and a TGI [3] of over 100 µM. The TGI [5] was over 100 µM, the TGI [7] was over 100 µM and the TGI [8] was over 100 µM. It also gave a TGI [9] of over 100 µM, a TGI [10] of over 100 µM and a TGI [11] of over 100 µM.
`CCc1cccc(CC)c1NC(=O)/C(Cl)=C(/Cl)C(=O)O` was tested, and the TGI [1] was over 67.3 µM, the TGI [2] was 48.8 µM and the TGI [3] was over 79.4 µM. The TGI [5] was 49.1 µM, the TGI [7] was 41.4 µM and the TGI [8] was 50.2 µM. It also gave a TGI [9] of over 85.8 µM, a TGI [10] of 40.9 µM and a TGI [11] of over 100 µM.
